Results as given in patent publication US4060652A (priority 1976, dated 1977).
Entries after “also recorded” stand apart in the source; their conditions may differ.

Legend:
[1] = system: M-cholinoreceptors and conduction in parasympathetic ganglia; test: Effect on M-cholinoreceptors and parasympathetic ganglia, n. vagus stimulation in cats; type: in vivo
Protocol: (§1) Experiments were carried out on narcotized cats (chloralose and urethane, intraperitoneally).
In experiments on five animals, the left nervus vagus was cut. Platinum electrodes were placed on the peripherial part to stimulate the nerve with pulses of 0.1 msec and an amplitude of 5 V. The nerve was stimulated every 10 seconds at a frequency of 30 Hz. The pulse rate was recorded (ECG) and the blood pressure in the femoral artery was measured with a mercury pressure gauge.

[2] = system: postsynaptic membrane of skeletal muscle; test: Site of action: close intra-arterial acetylcholine and direct stimulation; type: in vivo; conditions: cats
Protocol: (§2) Cats were narcotized (with chloralose, 50 mg per kg body weight, and urethane, 500 mg/kg, intraperitoneally) or decerebrated at the quadrigeminal bodies level. The lungs were ventilated artificially whenever necessary. Contractions of the anterior tibial muscle were recorded in isotonic concitions in response to electric stimulation of the peripheral part of n. peroneus with supramaximum pulses of 0.1 msec at a frequency of 0.1-100 Hz.
The blocking effect of Tercuronium is due to its action on the postsynaptic membrane of skeletal muscle.

[3] = Solubility, stability and pH; type: physicochemical; conditions: for stability on exposure to air: solid
Protocol: The active principle of Tercuronium, viz., p,p"-bis-triethylammonio-n-terphenyl dibenzenesulphonate having the structure [drawing 1] is a new compound that has not been described in literature. […] A 0.0012 percent solution of the active principle in a 0.01 N solution of hydrochloric acid has a specific absorption spectrum in the U-V region, with a maximum at 285 ± 2 nm and a minimum at 237 ± 1 nm.
Distilled water should contain a stabilizing agent, namely 3 ml of a 0.1 N solution of HCl per liter of water. The solution is stirred, filtered, and filled into 1-ml ampoules made of neutral glass. The ampoules are sterilized with steam at a temperature of 100° C for thirty minutes. The pH of the solution after sterilization is 3.7 (determined potentiometrically).

[4] = system: rabbits; test: Allergizing action, Arthus-Sakharov phenomenon in rabbits; type: in vivo; conditions: seven subcutaneous injections at 5-day intervals
Protocol: In order to study the allergizing action of Tercuronium, we used the Arthus-Sakharov phenomenon. Experiments were carried on three rabbits. Tercuronium was injected to each rabbit in a dose of […] subcutaneously on the left side of the back in a volume of 0.2 to 0.25 ml, and 1 ml of horse serum was injected into the right side of the back (also subcutaneously). We made seven injections at 5-day in tervals. Horse serum alone was injected to the fourth (control) rabbit in the same order.

[5] = system: blood coagulation and erythrocytes; test: Effect on blood coagulation rate and resistance of erythrocytes; type: in vivo; conditions: two rabbits, two narcotized cats
[6] = system: nervomuscular conduction, vegetative ganglia, circulation; test: Overall conclusions from animal experiments; type: in vivo, animals
Text: The results of the pharmacological studies of the proposed muscle relaxant Tercuronium, as compared with the known muscle relaxants, enable us to make the following conclusions.

[7] = system: nervomuscular conduction, anterior tibial muscle; test: Nervomuscular block in cats, indirect stimulation of anterior tibial muscle; type: in vivo
Protocol: The preparation was studied in acute experiments on cats, rabbits, mice and pigeons, in experiments on phrenico-diaphragm preparations of rats, and also on the straight muscle of a frog abdomen. The properties of Tercuronium were compared with those of α-tubocurarin and pancuronium.
as §2

[8] = Lethality by paralysis of respiratory muscles in rabbits; conditions: rabbit, in vivo
Text: In another series of experiments, we determined the intravenous dose of the muscle relaxants that caused death of 50% of the animals due to paralysis of the respiratory muscles -- lethal dose 50% (LD50).

[9] = system: albino mice; test: Inhibition of turning from the lateral position in mice; type: in vivo
Text: (§3) In experiments on albino mice, the dose of Tercuronium injected into the tail vein, that inhibited the symptom of turning from the lateral position in 50 percent of mice (ED50) was 0.06 mcM/kg (18 experiments); and 50 percent of mice perished from paralysis of the respiratory muscles (LD50) following an injection of 0.09 mcM/kg of Tercuronium.

[10] = system: M-cholinoreceptors; test: Depression after intravenous acetylcholine in cats; type: in vivo; conditions: 0.1 to 1.0 mcM/kg; acetylcholine 3 mg/kg; three cats
Protocol: as §1

[11] = system: pigeons; test: Paralysis in pigeons; type: in vivo
[12] = Lethality by paralysis of respiratory muscles in mice; conditions: mouse, in vivo, iv
Text: as §3

[13] = system: ischio-gastrocnemius conduction; test: Block of ischio-gastrocnemius conduction in narcotized rabbits; type: in vivo
Protocol: In experiments on narcotized rabbits (chloralose, 50 mg/kg, and urethane, 500 mg/kg, given intravenously) the intravenous dose of Tercuronium that produced complete block of the ischio-gastrocnemius conduction was 0.025 ± 0.005 mcM/kg (five experiments).

[14] = system: straight muscles of the frog abdomen; test: Isolated straight muscle of frog abdomen, antagonism of acetylcholine; parameters: species or system frog (Rana tempraria)
Text: In experiments on isolated straight muscles of the frog abdomen (Rana tempraria) the concentration of Tercuronium, that weakened the action acetylcholine, was 2.0 ± 0.04 × × 10^-7 m/l.

[15] = system: nervomuscular conduction and arterial pressure; test: Effect of narcotics on action in decerebrated cats; type: in vivo
Text: The action of ether, fluorothane, and sodium thiopental (given in narcotic concentrations) on the nervomuscular blocking activity and depressive effect (action on the arterial pressure) of Tercuronium, as well as on the neostigmin-Tercuronium antagonism was studied on decerebrated cats.

[16] = 0.08 micromole per kg intravenous
[17] = deep fluorothane-induced anesthesia
[18] = ether, fluorothane, sodium thiopental

CC[N+](CC)(CC)c1ccc(-c2ccc(-c3ccc([N+](CC)(CC)CC)cc3)cc2)cc1 [Tercuronium, p,p"-bis-triethylammonio-n-terphenyl dibenzenesulphonate]
response of n. vagus to stimulation ([1]; 0.1 and 1.0 mcM/kg): the response of n. vagus to stimulation did not change | heart contractility without stimulation of n. vagus ([1]; 0.1 and 1.0 mcM/kg intravenous): heart contractility was not affected | effect on parasympathetic part of the vegetative nerve system ([1]; 20 times the myoparalytic dose): does not produce any effect on the parasympathetic part of the vegetative nerve system | bronchospasm or salivation ([1]; very large dose, other experiments on animals): no bronchospasm or salivation were observed | site of blocking action [2]: contraction of muscles induced by acetylcholine injected by the close intra-arterial method, was inhibited simultaneously with the block of the nervomuscular condution; also recorded: it contracted in response to direct stimuli | solubility in water [3]: readily soluble in water | stability on exposure to air [3]: slightly green when exposed to air | stability on exposure to air ([3]; listed as p,p"-bis-triethylammonio-p-terphenyl): becomes slightly green on exposture to air | stability of aqueous solution ([3]; stabilizer 3 ml of 0.1 N HCl per liter of water): stable in the presence of a stabilizer | local allergic reaction [4]: no reaction | blood coagulation rate and resistance of the erythrocytes [5]: did not discover any effect | blood pressure at ten-fold dose ([6]; cats, ten-fold dose): only slightly reduced | nervomuscular blocking activity compared with pancuronium ([6]; experiments on animals): somewhat lower than of pancuronium | histamine, vegetative ganglia, blood pressure and heart frequency ([6]; myoparalytic dose): does not produce histamine, does not block vegetative ganglia or affect the blood pressure and frequency of heart contractions | frequency of heart contraction ([6]; ten times the myoparalytic dose): does not affect the frequency of heart contraction | dependence of block on stimulation frequency [7]: more manifest with increasing frequency of pulse stimuli; also recorded: tetanization of the motor nerve at a frequency of 50 to 100 Hz produces a pessimal reaction in the muscle | influence of other agents on action [7]: lessened by the action of neostigmin, succinylcholine, decamethonium, and acetylcholine and strengthened by α-tubocurarin | mean duration of effect [7]: eight | block of nervomuscular conduction [7, 16]: 95-100% | time to block following injection [7, 16]: 40 to 60 s | time to complete restoration of muscle contractility ([7]; after injection): 10 ± 1.5 min | dose blocking nervomuscular conduction (95-100 percent) ([7]; intravenous, 0.1 Hz): 0.08 ± 0.002 micromole per kg | LD50 ([8]; intravenous): 0.03 µmol/kg | selectivity ratio ([8]; read-out: LD50 to HDD ratio): 1.4 | ED50 ([9]; Mus musculus, iv): 0.06 µmol/kg | myoparalytic action compared with pancuronium and α-tubocurarin ([9]; mice): several times lower than that of pancuronium and several times higher than that of α-tubocurarin | depression after intravenous acetylcholine [10]: did not produce depression | effect in pigeons ([11]; 0.2 mcM/kg intravenous): weak paralysis developed; also recorded: shows the nondepolarizing effect as well | ED50 ([11]; Columbidae, pigeons, intravenous): 0.2 µmol/kg | LD50 [12]: 0.09 µmol/kg | selectivity ratio ([12]; read-out: width of the muscle relaxing action (LD50/ED50)): 1.5 | ED100 ([13]; Oryctolagus cuniculus, narcotized rabbits, intravenous, five experiments, read-out: dose producing complete block of ischio-gastrocnemius conduction): 0.025 ± 0.005 µmol/kg | restoration of muscle contraction by neostigmin ([13]; neostigmin 0.1 mg/kg during complete block): always resulted in immediate and full restoration of the muscle contraction | contractions produced in the muscle [14]: did not produce contractions in the muscle | interaction with fluorothane on blood pressure ([15]; decerebrated cats): did not observe mutual strengthening of fluorothane and Tercuronium action on blood pressure | action on arterial pressure in ether narcosis ([15]; deep ether-induced narcosis): did not substantially change | depressive effect in fluorothane anesthesia [15, 17]: failed to increase | myoparalytic effect in fluorothane anesthesia [15, 17]: intensified insignificantly | compatibility with anesthetic agents [15, 18]: quite compatible with anesthetic agents such as ether, fluorothane, and sodium thiopental | neostigmin antagonism against background of narcotics [15, 18]: persisted against the back ground of narcotics; also recorded: fully preserved | curare-like activity and action on blood pressure with sodium thiopental ([15]; sodium thiopental 10 mg/kg): did not change
